{"source": "patent EP0570196B1", "about": "“Oxime derivatives” (ZENECA LIMITED, priority 1992, dated 1993)", "key": {"5-LO [1]": {"biological_target": "T1, 5-LO (Homo sapiens, UniProt P09917)", "T1 construct": "incubating a test compound with heparinised human blood, prior to challenge with the calcium ionophore A23187; endogenous in cells; host or cells: heparinised human whole blood (blood cells)", "T1 sequence (P09917 1-674)": "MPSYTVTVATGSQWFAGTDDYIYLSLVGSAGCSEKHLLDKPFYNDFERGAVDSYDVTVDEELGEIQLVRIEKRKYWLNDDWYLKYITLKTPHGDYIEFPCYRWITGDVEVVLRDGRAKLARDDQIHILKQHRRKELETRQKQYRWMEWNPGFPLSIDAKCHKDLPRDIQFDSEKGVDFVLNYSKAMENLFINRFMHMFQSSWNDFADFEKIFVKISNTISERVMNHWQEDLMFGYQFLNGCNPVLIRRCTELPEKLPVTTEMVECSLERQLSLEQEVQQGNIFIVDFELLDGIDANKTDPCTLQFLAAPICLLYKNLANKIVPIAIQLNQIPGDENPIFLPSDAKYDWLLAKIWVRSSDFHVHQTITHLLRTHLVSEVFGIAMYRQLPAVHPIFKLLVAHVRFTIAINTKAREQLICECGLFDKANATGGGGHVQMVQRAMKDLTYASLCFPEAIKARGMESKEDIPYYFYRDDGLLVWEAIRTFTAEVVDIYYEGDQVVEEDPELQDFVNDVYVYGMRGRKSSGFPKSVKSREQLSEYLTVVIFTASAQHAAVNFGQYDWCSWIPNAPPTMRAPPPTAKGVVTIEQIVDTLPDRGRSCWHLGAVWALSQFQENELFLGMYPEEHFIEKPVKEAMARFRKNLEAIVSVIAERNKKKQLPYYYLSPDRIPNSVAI", "test": "Test a): in vitro heparinised human blood challenged with calcium ionophore A23187, radioimmunoassay of LTB₄", "assay_type": "cell-based", "conditions": "heparinised human blood, A23187 challenge; read-out: IC₅₀ against LTB₄ in test a)", "text": "As stated previously, the compounds of the formula I are inhibitors of the enzyme 5-LO. […] J. Pharmacol., 1985, 84, 34P) which involve the use of a protein-LTB₄ conjugate produced using the procedure of Young et alia (Prostaglandins, 1983, 26(4), 605-613). The effects of a test compound on the enzyme cyclooxygenase (which is involved in the alternative metabolic pathway for arachidonic acid and gives rise to prostaglandins, thromboxanes and related metabolites) may be measured at the same time using the specific radioimmunoassay for thromboxane B₂(TxB₂) described by Carey and Forder (see above). This test provides an indication of the effects of a test compound against 5-LO and also cyclooxygenase in the presence of blood cells and proteins. It permits the selectivity of the inhibitory effect on 5-LO or cyclooxygenase to be assessed. • b) An ex vivo assay system, which is a variation of test a) above, involving administration to a group of rats of a test compound (usually orally as the suspension produced when a solution of the test compound in dimethylsulphoxide is added to carboxymethylcellulose), blood collection, heparinisation, challenge with A23187 and radioimmunoassay of LTB₄ and TxB₂. […]"}, "5-LO [2]": {"tested_on": "5-LO", "test": "Test c): in vivo zymosan-induced LTB₄ liberation in a subcutaneous air pouch of male rats", "conditions": "rat air pouch, 3 hours"}}}
{"compound": "COC1(c2cc(F)cc(Sc3ccc(CON=C(C)C)cc3)c2)CCOCC1", "note": "[Example 1, acetone 0-{4-[5-fluoro-3-(4-methoxytetrahydropyran-4-yl)phenylthio]benzyl}oxime]", "values": [{"measurement": "IC50", "setting": "5-LO [1]", "result": 150, "unit": "nM"}, {"measurement": "oral ED₅₀ versus LTB₄ in test c)", "setting": "5-LO [2]", "result": "approximately 1 mg/kg"}]}
{"compound": "COC1(c2cc(F)cc(Sc3ccc(C(C)ON=C(C)C)cc3)c2)CCOCC1", "note": "(stereo not drawn) [Example 2, acetone 0-{4-[5-fluoro-3-(4-methoxytetrahydropyran-4-yl)phenylthio)-α-methylbenzyl}oxime]", "values": [{"measurement": "IC50", "setting": "5-LO [1]", "result": 90, "unit": "nM"}, {"measurement": "oral ED₅₀ versus LTB₄ in test c)", "setting": "5-LO [2]", "result": "approximately 1.5 mg/kg"}]}
